# Assay results: ChEMBL document CHEMBL1201862, “PubChem BioAssay data set” (2004)
# The source made the active and inactive calls.
# How the values were obtained:
# INS1 = test: INS-1E survival protection against cytokine death – cell-based, luminescence, retest, dose response (AID 449756); type: functional; settings: Rattus norvegicus;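 further: cell death triggered by IL-1 beta plus TNF-alpha plus IFN-gamma mixture; protective hits raise ATP signal compared with cytokine alone wells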
# [1] = target: T1, Microphthalmia-associated transcription factor (Homo sapiens, UniProt O75030); test: reducers of TRPM1 reporter luminescence, concentration series – cell-based, SK-MEL-5, cherry-picked, set 3, MITF inhibitor project, dose response (AID 493073); type: functional;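 further: SK-MEL-5 melanoma cells with luciferase driven by the MITF target TRPM1 promoter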
# T1 sequence (O75030 whole entry): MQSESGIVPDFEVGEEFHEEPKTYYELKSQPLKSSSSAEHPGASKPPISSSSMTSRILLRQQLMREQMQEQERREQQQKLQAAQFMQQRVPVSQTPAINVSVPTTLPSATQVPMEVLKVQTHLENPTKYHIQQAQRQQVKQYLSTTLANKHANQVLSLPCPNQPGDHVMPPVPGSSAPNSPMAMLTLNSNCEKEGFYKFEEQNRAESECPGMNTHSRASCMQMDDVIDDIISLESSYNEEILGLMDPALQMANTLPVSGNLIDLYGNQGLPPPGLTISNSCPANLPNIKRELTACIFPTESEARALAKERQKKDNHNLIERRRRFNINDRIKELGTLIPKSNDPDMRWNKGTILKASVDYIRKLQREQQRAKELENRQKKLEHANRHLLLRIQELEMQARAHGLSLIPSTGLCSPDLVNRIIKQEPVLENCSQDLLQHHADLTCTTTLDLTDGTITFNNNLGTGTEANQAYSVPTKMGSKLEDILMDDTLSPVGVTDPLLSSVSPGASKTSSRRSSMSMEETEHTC
# Paired box protein Pax-8 = Paired box protein Pax-8 (Homo sapiens, UniProt Q06710); test: PAX8 transcriptional activity inhibition in RMG-I – RMG-I cells, luciferase, cherry-pick, dose response (AID 687027); type: functional, cell-based;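 further: luciferase reporter driven by Pax8 target thyroperoxidase promoter measured by SteadyGlo luminescence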
# [2] = target: T2, Heat shock factor protein 1 (Mus musculus, UniProt P38532); test: decrease of HSF1-responsive luciferase luminescence – cell-based, NIH3T3, dose retest, confirmation (AID 2382); type: functional;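 further: NIH3T3 fibroblasts with HSF1-driven luciferase reporter stressed by proteasome inhibitor MG132; luminescence from HSF1-driven luciferase expression after 8 hours of MG132 stress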
# T2 sequence (P38532 whole entry): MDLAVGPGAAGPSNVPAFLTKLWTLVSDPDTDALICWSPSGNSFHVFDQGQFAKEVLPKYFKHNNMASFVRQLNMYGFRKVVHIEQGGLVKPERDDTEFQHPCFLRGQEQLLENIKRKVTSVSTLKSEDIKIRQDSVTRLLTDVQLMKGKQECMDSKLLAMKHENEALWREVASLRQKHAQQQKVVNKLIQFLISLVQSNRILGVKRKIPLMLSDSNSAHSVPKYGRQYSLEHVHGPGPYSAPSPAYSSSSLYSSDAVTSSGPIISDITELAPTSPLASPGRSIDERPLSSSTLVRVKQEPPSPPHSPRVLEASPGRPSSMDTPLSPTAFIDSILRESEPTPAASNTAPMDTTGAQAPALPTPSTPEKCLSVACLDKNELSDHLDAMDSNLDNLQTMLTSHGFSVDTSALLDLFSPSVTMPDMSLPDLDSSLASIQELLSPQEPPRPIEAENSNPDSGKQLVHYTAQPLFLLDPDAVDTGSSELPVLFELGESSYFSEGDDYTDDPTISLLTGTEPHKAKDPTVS
# Cytochrome P450 2C9 = Cytochrome P450 2C9 (Homo sapiens, UniProt P11712)
# Cytochrome P450 2D6 = Cytochrome P450 2D6 (Homo sapiens, UniProt P10635);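 further: CYP2D6 member of a cytochrome P450 panel assay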
# Cytochrome P450 2C19 = Cytochrome P450 2C19 (Homo sapiens, UniProt P33261); test: Cytochrome panel assay with activity outcomes. Panel member name: p450-cyp2c19 Compounds with AC50 equal or less than 10 uM are considered active; type: functional; settings: read-out: AC50
# Protein RecA = target: T3, Protein RecA (Mycobacterium tuberculosis, UniProt P9WHJ3); test: Fluorescence Cell-Free Homogeneous Dose Retest to Identify Inhibitors of RecA-Intein Splicing Activity. [Related pubchem assays (depositor defined):AID2097, AID2223, AID489010, AID492950]; type: functional
# T3 sequence (P9WHJ3 whole entry): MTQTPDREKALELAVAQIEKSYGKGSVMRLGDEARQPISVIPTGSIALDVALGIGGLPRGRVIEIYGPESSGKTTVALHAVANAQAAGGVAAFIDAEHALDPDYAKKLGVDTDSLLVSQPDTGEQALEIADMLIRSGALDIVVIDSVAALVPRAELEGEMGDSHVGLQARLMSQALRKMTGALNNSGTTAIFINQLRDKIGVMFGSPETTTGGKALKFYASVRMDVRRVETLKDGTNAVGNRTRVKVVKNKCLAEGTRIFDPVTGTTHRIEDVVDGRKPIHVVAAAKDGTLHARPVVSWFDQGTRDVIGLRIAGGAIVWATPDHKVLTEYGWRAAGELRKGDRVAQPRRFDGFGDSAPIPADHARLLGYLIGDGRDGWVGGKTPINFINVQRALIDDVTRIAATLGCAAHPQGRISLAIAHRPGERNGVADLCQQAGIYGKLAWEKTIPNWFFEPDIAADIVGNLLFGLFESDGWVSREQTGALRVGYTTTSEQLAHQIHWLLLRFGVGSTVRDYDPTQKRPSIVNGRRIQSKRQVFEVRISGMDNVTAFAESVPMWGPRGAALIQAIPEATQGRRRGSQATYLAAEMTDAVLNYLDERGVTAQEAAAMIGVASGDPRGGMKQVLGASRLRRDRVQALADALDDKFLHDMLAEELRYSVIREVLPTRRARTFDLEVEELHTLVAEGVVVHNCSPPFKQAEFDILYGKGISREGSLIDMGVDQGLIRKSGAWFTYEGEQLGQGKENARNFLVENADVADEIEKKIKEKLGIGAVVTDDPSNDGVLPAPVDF
# [3] = target: T4, Replicative DNA helicase DnaB (Mycobacterium tuberculosis, UniProt P9WMR3); test: DnaB intein splicing inhibitors, dose response, biochemical, cell-free fluorescence (AID 449749); type: functional
# T4 sequence (P9WMR3 whole entry): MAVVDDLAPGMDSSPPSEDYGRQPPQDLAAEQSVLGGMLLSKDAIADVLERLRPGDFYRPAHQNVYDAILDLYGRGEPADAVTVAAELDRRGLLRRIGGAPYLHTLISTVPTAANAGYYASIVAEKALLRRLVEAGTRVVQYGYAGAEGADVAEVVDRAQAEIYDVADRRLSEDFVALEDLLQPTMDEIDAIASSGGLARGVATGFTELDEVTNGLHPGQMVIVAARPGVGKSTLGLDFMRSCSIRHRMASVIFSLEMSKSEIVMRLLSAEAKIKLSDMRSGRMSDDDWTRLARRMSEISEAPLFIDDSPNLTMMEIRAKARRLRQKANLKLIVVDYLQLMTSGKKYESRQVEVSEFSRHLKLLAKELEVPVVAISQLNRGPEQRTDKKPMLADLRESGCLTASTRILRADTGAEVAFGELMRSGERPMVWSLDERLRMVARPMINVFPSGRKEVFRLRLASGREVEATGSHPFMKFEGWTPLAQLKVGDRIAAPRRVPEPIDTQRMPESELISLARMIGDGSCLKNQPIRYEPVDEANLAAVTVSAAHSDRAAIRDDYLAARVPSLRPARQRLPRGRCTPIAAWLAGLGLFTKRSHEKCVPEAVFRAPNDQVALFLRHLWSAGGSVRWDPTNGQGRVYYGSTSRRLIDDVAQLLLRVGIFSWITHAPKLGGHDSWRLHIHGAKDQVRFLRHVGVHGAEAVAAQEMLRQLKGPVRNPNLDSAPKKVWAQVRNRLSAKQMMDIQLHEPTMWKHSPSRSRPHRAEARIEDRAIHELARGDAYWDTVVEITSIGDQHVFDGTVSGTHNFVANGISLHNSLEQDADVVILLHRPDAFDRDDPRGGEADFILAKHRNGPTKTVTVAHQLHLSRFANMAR
# Leucine aminopeptidase = target: T5, Leucine aminopeptidase (Plasmodium falciparum 3D7, UniProt Q8IL11); test: P. falciparum M17LAP inhibitors, primary screen, biochemical, fluorogenic H-Leu-NHMec substrate, 1536-well (AID 1619); type: functional
# T5 sequence (Q8IL11 whole entry): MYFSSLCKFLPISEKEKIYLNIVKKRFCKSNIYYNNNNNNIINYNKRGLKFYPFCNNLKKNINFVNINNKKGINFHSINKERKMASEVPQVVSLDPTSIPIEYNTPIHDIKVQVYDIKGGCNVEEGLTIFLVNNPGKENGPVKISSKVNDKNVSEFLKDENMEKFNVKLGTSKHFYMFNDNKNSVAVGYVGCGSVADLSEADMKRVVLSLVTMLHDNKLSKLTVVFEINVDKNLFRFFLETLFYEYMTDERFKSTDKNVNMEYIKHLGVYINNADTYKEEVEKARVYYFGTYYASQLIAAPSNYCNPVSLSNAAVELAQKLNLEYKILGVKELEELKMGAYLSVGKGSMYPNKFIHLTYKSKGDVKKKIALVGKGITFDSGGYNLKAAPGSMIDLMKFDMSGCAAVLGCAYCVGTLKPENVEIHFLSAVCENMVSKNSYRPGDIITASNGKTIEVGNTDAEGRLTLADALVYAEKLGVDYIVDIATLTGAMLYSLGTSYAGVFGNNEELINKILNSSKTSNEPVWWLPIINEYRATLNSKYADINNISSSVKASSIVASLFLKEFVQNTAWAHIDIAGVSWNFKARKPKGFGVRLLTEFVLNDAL
# [4] = target: T6, Corticotropin-releasing factor receptor 2/Corticotropin-releasing factor-binding protein (Homo sapiens, UniProt P24387+Q13324); test: activators of CRF receptor 2 with binding protein – uHTS hits, confirmation (AID 602473); type: functional; settings: read-out: EC50_Mean
# T6 sequence (Q13324 whole entry): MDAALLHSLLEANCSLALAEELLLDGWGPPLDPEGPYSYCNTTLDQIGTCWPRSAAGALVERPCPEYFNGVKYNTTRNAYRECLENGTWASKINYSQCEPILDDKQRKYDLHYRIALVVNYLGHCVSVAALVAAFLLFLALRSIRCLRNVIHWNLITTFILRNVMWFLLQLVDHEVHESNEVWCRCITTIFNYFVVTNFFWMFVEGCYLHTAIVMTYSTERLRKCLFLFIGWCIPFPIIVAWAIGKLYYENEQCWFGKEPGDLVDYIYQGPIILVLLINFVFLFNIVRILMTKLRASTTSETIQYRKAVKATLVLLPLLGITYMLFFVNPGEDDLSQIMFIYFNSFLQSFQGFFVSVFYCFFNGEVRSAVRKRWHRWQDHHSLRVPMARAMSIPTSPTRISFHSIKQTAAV
# T6 sequence (P24387 whole entry): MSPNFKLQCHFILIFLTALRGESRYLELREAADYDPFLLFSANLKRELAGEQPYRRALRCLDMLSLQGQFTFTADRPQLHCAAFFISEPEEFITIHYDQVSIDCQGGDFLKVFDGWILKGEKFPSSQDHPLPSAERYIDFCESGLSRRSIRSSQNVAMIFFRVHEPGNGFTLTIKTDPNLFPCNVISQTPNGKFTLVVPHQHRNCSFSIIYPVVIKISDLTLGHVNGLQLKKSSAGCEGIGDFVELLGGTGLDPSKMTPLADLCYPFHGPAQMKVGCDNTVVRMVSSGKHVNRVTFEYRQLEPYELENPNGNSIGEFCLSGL
# [5] = DRD fibroblast viability loss – cell-based, non-viral oncogenic, luminescence, dose response (AID 1934); type: functional; settings: Homo sapiens
# BJ [6] = test: BJ-TERT fibroblast viability loss – cell-based, RAS-independent, luminescence, dose response (AID 1933); type: functional; settings: Homo sapiens
# BJ [7] = test: BJ-TERT-LT-ST fibroblast viability loss – cell-based, RAS-independent, luminescence, dose response (AID 1935); type: functional; settings: Homo sapiens;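 further: BJ fibroblasts immortalized with TERT plus LT and ST oncogenes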
# BJ [8] = test: cells; type: functional, cell-based; settings: Homo sapiens
# Sequence of Cytochrome P450 2C19 (P33261 whole entry): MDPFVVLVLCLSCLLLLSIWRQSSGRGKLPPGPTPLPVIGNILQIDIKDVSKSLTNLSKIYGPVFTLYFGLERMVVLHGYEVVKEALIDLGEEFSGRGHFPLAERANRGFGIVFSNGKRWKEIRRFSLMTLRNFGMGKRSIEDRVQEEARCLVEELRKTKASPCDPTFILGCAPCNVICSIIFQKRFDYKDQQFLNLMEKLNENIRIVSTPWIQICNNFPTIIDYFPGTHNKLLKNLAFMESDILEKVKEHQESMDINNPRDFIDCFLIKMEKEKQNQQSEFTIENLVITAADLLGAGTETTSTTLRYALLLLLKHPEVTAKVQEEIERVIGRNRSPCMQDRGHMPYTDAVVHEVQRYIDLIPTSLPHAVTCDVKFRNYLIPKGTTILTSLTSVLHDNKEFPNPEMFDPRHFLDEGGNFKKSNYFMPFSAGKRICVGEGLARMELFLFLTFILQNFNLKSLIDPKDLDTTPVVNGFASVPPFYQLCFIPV
# Sequence of Cytochrome P450 2C9 (P11712 whole entry): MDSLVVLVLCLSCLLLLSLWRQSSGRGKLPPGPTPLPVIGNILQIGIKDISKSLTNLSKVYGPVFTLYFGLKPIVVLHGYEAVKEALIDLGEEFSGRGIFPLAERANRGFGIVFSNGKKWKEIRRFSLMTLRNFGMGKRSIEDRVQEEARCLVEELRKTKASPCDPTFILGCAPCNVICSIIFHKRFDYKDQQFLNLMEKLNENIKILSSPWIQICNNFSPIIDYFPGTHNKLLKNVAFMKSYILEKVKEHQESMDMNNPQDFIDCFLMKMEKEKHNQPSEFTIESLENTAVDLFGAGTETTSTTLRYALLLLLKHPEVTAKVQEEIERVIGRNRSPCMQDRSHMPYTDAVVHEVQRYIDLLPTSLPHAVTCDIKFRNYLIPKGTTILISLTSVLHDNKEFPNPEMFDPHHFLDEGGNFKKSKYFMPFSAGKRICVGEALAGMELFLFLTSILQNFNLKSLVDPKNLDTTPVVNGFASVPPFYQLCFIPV
# Sequence of Paired box protein Pax-8 (Q06710 whole entry): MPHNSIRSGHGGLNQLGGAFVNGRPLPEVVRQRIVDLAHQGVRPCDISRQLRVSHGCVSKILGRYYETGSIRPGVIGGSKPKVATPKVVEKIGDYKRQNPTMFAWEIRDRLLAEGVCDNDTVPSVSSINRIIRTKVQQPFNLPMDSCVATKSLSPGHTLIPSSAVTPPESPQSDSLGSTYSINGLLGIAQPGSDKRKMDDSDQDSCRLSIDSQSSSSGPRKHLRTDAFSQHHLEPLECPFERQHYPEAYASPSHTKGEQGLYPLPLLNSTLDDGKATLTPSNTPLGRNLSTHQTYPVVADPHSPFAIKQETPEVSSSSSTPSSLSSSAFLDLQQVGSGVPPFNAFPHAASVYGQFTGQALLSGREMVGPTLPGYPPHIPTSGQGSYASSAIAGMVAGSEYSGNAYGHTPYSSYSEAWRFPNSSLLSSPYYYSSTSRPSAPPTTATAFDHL
# Sequence of Cytochrome P450 2D6 (P10635 whole entry): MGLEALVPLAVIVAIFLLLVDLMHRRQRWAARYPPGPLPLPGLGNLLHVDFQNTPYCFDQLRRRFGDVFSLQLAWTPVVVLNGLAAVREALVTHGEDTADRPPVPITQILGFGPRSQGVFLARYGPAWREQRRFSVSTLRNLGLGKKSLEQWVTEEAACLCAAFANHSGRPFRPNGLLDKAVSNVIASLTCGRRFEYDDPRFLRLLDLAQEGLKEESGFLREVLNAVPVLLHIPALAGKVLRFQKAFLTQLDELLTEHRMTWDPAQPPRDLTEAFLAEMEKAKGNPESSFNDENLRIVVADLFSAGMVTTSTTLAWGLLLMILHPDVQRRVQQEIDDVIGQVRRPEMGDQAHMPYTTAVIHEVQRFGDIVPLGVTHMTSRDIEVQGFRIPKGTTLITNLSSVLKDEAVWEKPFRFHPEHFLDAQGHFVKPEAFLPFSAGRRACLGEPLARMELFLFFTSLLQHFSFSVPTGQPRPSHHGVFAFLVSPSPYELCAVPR
smiles,measurement,setting,value
Cc1cc(C(C)(C)C)cc(C)c1C[n+]1c2n(c3ccc(C(F)(F)F)cc31)CCCCC2,AC50,INS1,3.43 µM (active)
same,AC50,[1],7.55 µM (active)
same,AC50,Paired box protein Pax-8,4.37 µM (active)
CC1(C)Cc2c(sc(NC(=O)c3ccc4ncsc4c3)c2C(N)=O)C(C)(C)N1,AC50,[1],10.1 µM (active)
same,EC50,[2],> 195 µM (not active)
Cc1c(C)n(C)c2ccc(C(=O)Nc3cccc4ccccc34)cc12,AC50,Cytochrome P450 2C9,inconclusive
same,AC50,Cytochrome P450 2D6,11.2 µM (inconclusive)
CCOC(=O)C1=NOC(CNC(=O)C2=NOC(CNC(=O)c3c(-c4ccccc4Cl)noc3C)C2)C1 (stereo unspecified),AC50,Cytochrome P450 2C9,inconclusive
same,AC50,Cytochrome P450 2C19,20 µM (inconclusive)
COc1ccc(CNC(=O)C2CC(c3cccc([N+](=O)[O-])c3)=NO2)cc1 (stereo unspecified),AC50,Cytochrome P450 2C9,inconclusive
CCOc1ccc(-n2c(O)nnc2SCC(=O)Nc2ccccc2C)cc1,AC50,Cytochrome P450 2C9,inconclusive
CCc1cccc(NC(=O)CSCc2cc(O)[nH]n2)c1,EC50,Protein RecA,2.37 µM (active)
same,AC50,[3],3.37 µM (active)
same,IC50,Leucine aminopeptidase,25.9 µM (active)
C=CCSc1nc(NC)c2sccc2n1,AC50,Cytochrome P450 2C9,inconclusive
Cc1cc2c(C(F)(F)F)cc(=O)oc2c2c1NCCC2,AC50,Cytochrome P450 2C9,inconclusive
same,EC50,[4],1.12 µM (active)
same,AC50,Cytochrome P450 2C19,1.26 µM (inconclusive)
COc1ccccc1CNC(=O)C1CCN(S(=O)(=O)N2CC(C)CC(C)C2)CC1 (stereo unspecified),AC50,Cytochrome P450 2C9,inconclusive
same,AC50,Cytochrome P450 2C19,39.8 µM (inconclusive)
COc1cc2c(c(OC)c1OC)-c1ccc(OC)c(=O)cc1C(NC(C)=O)CC2 (stereo unspecified),AC50,[1],0.056 µM (active)
same,EC50,[5],0.351 µM (active)
same,EC50,BJ [6],0.348 µM (active)
same,AC50,Paired box protein Pax-8,< 0.26 µM (active)
same,EC50,BJ [7],0.249 µM (active)
same,EC50,BJ [8],0.627 µM (inconclusive)
